For five compounds, IC50 results are on record in patent publication US20220112187A1, “PYRAZOLOPYRIDINE AMINE COMPOUNDS FOR THE TREATMENT OF AUTOIMMUNE DISEASE” (Hoffmann-La Roche Inc., priority 2018, published 2022).

pIC50: −log10 of the molar value.

The assay deals with T1, human TLR9 (Homo sapiens, UniProt Q9NR96).
T1 sequence (Q9NR96 26-1032): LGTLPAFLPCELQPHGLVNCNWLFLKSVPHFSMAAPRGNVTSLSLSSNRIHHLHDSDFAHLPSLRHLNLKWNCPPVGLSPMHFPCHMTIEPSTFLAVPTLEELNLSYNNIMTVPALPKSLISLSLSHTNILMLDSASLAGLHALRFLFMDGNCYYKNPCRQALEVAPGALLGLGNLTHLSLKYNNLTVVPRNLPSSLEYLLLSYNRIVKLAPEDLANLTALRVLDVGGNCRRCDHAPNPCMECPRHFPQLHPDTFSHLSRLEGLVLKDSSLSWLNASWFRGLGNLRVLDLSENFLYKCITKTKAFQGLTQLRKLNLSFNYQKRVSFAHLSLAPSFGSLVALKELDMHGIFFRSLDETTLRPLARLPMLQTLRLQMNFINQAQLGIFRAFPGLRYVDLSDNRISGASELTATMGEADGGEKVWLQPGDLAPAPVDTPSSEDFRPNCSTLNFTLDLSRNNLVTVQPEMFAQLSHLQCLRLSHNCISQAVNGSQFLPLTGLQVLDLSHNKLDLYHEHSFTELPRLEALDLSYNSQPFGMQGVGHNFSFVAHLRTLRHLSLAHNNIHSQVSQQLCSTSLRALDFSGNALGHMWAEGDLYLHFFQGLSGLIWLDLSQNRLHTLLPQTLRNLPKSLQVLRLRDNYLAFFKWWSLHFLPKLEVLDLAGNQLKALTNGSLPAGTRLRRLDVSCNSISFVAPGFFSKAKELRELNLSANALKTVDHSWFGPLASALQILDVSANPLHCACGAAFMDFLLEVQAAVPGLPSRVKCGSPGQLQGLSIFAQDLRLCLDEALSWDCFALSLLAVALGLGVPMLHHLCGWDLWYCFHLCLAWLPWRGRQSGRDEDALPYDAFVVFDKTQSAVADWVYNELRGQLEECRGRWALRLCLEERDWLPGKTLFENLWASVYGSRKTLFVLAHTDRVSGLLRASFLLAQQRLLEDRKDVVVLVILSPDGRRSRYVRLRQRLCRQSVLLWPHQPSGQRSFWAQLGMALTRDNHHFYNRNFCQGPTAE
Nature of the assay: HEK293-Blue-hTLR-9 cells assay (SEAP reporter, ODN2006 stimulation). The class given is cell-based. The conditions noted are these: HEK293-Blue-hTLR9 cells, ODN2006 ligand, 20 hrs incubation. In short, it runs like this:
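HEK293-Blue cells stimulated with ODN2006 (10 μL of 20 uM added) plus serially diluted compound, 1% DMSO final, for 20 hrs at 37° C. SEAP in supernatant measured with QUANTI-Blue after 2 hrs at 37° C, absorbance at 620-655 nm; antagonism seen as reduced reporter signal.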

The term pIC50 denotes −log10 of the IC50, conventionally taken in molar units. High values mean a low IC50, low ones a high IC50. `C[C@@H]1CN(c2ccc(C#N)n3nccc23)C[C@H](CN2CCC3NCC3C2)O1` (stereo partly drawn) [Example 70, 4-[(2S,6R)-2-(3,7-diazabicyclo[4.2.0]octan-3-ylmethyl)-6-methyl-morpholin-4-yl]pyrazolo[1,5-a]pyridine-7-carbonitrile] gave a pIC50 of 6.70.
Under `C[C@@H]1CN(c2ccc(C#N)n3nccc23)C[C@H](CN2CCC23CNC3)O1` [Example 55, 4-[(2S,6R)-2-(1,6-diazaspiro[3.3]heptan-1-ylmethyl)-6-methyl-morpholin-4-yl]pyrazolo[1,5-a]pyridine-7-carbonitrile] stands 4.60; under `C[C@@H]1CN(c2ccc(C#N)n3nccc23)C[C@H](CN2CCCC3(CCNC3)C2)O1` (stereo partly drawn) [Example 44, 4-[(2S,6R)-2-(2,7-diazaspiro[4.5]decan-7-ylmethyl)-6-methyl-morpholin-4-yl]pyrazolo[1,5-a]pyridine-7-carbonitrile], 6.96.
Under `C[C@@H]1CN(c2ccc(C#N)n3nccc23)C[C@H](CN2CCC[C@@H]3NCCC32)O1` (stereo partly drawn) [Example 63, 4-[(2R,6S)-2-methyl-6-[[cis-(3aS,7aS)-1,2,3,3a,5,6,7,7a-octahydropyrrolo[3,2-b]pyridin-4-yl]methyl]morpholin-4-yl]pyrazolo[1,5-a]pyridine-7-carbonitrile] stands 5.23.
Under `C[C@@H]1CN(c2ccc(C#N)n3nccc23)C[C@H](CN2CC[C@@H]3CNCC32)O1` (stereo partly drawn) [Example 62, 4-[(2R,6S)-2-methyl-6-[[cis-(3aR,6aR)-3,3a,4,5,6,6a-hexahydro-2H-pyrrolo[3,4-b]pyrrol-1-yl]methyl]morpholin-4-yl]pyrazolo[1,5-a]pyridine-7-carbonitrile] stands 5.62.
